Test results published in EP0520200B1, “Imidazole compounds, their preparation and use” (NEUROSEARCH A/S, priority 1991, dated 1992).

Columns and labels:
hypermotility in mice = assay: Hypermotility in mice induced by amphetamine or cocaine; assay type: in vivo; conditions: result in words
Source text: This is in full accordance with the influence of N-type calcium channel blockers on transmitter release in the central nervous system. Therefore the compounds of the invention are useful as anti-psychotics.

[1] = tested on: voltage operated calcium channels; assay: Depolarization (potassium) induced 45Ca uptake into synaptosomes; assay type: biochemical, male Wistar rat; conditions: concentration inhibiting 50% of potassium stimulated uptake of 45Ca; rat cerebral cortex synaptosomes; corrected for basal uptake in non-depolarized samples
Method: A crude synaptosome preparation contains small vesicles surrounded by neuronal membranes, and it is possible to study an opening of the voltage operated calcium channels in such a preparation.
In the below described test influx of ^45Ca into synaptosomes is studied under depolarized conditions. The effect of test substances on the depolarization induced calcium uptake can thus be studied.
The cerebral cortex from a male Wistar rat is homogenized in 20 ml ice cold 0.32M saccharose. In the following steps the temperature is kept at 0°C to 4°C. The homogenate is centrifuged at 1,000 x g for 10 minutes and the supernatant recentrifuged for 20 minutes at 18,000 x g. The obtained pellet is resuspended in 0.32M saccharose (10 ml per g of original tissue).
Aliquots of 0.05 ml of the hereby obtained synaptosome suspension are added to glass tubes containing 0.625 ml of a NaCl buffer (136 mM Nacl, 4 Mm KCl, 0.35 mM CaCl2, 1.2 mM MgCl2, 20 mM Tris HCl, 12 mM glucose, pH 7.4) as well as 0.025 ml of different test substances in 48% ethanol. These tubes are pre-incubated for 30 minutes on ice and thereafter for 6 minutes at 37°C.
^45Ca uptake is initiated by addition to above glass-tubes of 0.4 ml ^45CaCl2 (specific activity: 29-39 Ci/g; […] per tube). For depolarized samples the 0.4 ml ^45CaCl2 contain KCl (145 mM) and for non-depolarized NaCl (145 mM). The samples are incubated for 15 seconds.
The ^45Ca uptake is stopped by filtering through glass fibre filters, which are subsequently washed 3 times with an ice cold solution of 145 mM KCl, 7 mM EGTA and 20 mM Tris HCl, pH 7.4 (5.0 ml). The radioactivity on the filters are measured by liquid scintillation spectrometry. Experiments are performed in duplicate.
Above test substances are dissolved in for example 10 ml 48% ethanol at a concentration of 0.44 mg/ml. Dilutions are made in ethanol. Test substances are tested at concentrations of 0.1, 0.3, 1, 3, 10 .... µg/ml.
The test value is given as IC50, that is the concentration in µM of the test substances, which inhibit 50% of the potassium stimulated uptake of ^45Ca. […]

Row | Compound | antagonism of hypermotility (hypermotility in mice) | IC50 [1]
1 | Nc1nc2ccccc2n1-c1cc(-c2ccccc2)ccc1O [1-(2-hydroxy-5-phenyl-phenyl)-2-aminobenzimidazole] | potently antagonize | –
2 | Nc1nc2cc(C(F)(F)F)ccc2n1-c1cc(Cl)ccc1O [1-(2-hydroxy-5-chlorophenyl)-5-trifluoromethyl-2-amino-benzimidazole] | – | 2000 nM
3 | Nc1nc2cc(F)ccc2n1-c1cccc(N2CCCC2)c1 [1-(5-(1-pyrrolidinyl)-phenyl)-2-amino-5-fluoro-benzimidazole] | – | 2000 nM
4 | COc1ccc(OC)c(-n2c(N)nc3cc(C(F)(F)F)ccc32)c1 [1-(2,5-dimethoxyphenyl)-2-amino-5-trifluoromethyl-benzimidazole] | – | 700 nM
